Assay results: patent US20210214359A1, “Compounds and Methods for Treating Bacterial Infections” (NEW YORK UNIVERSITY, priority 2018, published 2021)

Key:
[1] = tested on: S. aureus RN4220; assay: growth inhibition assay in liquid culture, potentiation of gentamicin (Gm); format: cell-based; settings: compound at 0.375 μg/mL
Excerpt: The compounds of the invention were screened in a growth inhibition assay in liquid culture of nonpathogenic S. aureus RN4220 to directly test whether a hit compound can potentiate the action of gentamicin (Gm) added at ≤10% the minimal inhibitory concentration (MIC). Gentamicin is a ribosome-targeting bactericidal antibiotic induces oxidative stress and is effective against MRSA strains. Although gentamicin is not a first-line antibiotic for monotherapy of staphylococcal infection, it is used in combination with vancomycin or β-lactams to treat serious infections, such as endocarditis.
The MIC results for the remaining compounds of the disclosure are provided in Table 2. % MIC activity of 51-100 is labeled “+”, % MIC activity of 21-50 is labeled “++”, and % MIC activity of ≤20 is labeled “+++”.

[2] = molecular target: T1, S. aureus CSE (Staphylococcus aureus, UniProt A0A0H3K724); assay: H2S produced by purified CSE in vitro; format: biochemical; settings: read-out: IC50, reduction of enzymatic activity (H2S produced by purified CSE)
Method: (§1) The amount of H2S produced by purified CSE was measured in the presence of the compound of Ex. 80 and found strong reduction of enzymatic activity with IC50 about 100 nM (FIG. 2B). This IC50 values are 10- to 400-fold lower than those determined for conventional CSE inhibitors and correlates well with its binding affinity, KD, as determined by MicroScale Thermophoresis (MST) (FIG. 2C).

[3] = tested on: human BJ cell line; assay: IncuCyte Cytotoxicity Assay; format: cell-based
Method: To determine toxicity of the compounds of the disclosure, an IncuCyte™ Cytotoxicity Assay (Essen BioScience) in the human BJ cell line was conducted. Cell cultures were supplemented with a chemical probe which entered the cell and labeled nuclei green fluorescence as cells die and membrane integrity is lost. Nuclei of live cells were labeled with red fluorescence. […] This cytotoxic concentration was over 50-fold higher than the optimal concentration of the compound of Ex. 80 for bacterial growth inhibition in liquid culture in combination with 10% MIC of gentamicin. Therefore, the compounds of the disclosure show low cytotoxicity in human cell lines and present desirable targets for the development of compositions for treating bacterial infections.

[4] = tested on: vancomycin-resistant RN10659 strain; assay: growth inhibition test in combination with vancomycin; format: cell-based, S. aureus; settings: for bacterial growth, agent alone: single agent
Method: (§2) FIG. 3 illustrates inhibition of culture growth of drug-resistant S. aureus by (A) the compound of Ex. 80 (GO-0001197; labeled as #9077) (30 μM) and 50% MIC of methicillin (Met) in methicillin-resistant USA300 strain; or by (B) the compound of Ex. 80 (30 μM) and 50% MIC of vancomycin (Van) in vancomycin-resistant RN10659 strain.
(§3) Because H2S inhibitors dramatically reduce the effective dose of antibiotics, they may potentiate or augment the activity of antibiotics in the strains that acquired resistance to these antibiotics. The compound of Ex. 80 (GO-0001197) was evaluated with two clinically relevant antibiotics, methicillin and vancomycin, which have different mechanisms of resistance.

[5] = tested on: methicillin-resistant USA300 strain; assay: growth inhibition test in combination with methicillin; format: cell-based, S. aureus; settings: for bacterial growth, agent alone: single agent
Method: as §2, §3

[6] = tested on: HeLa cells; assay: cytotoxicity in HeLa cells using a different assay; format: cell-based
[7] = molecular target: T1, S. aureus CSE; assay: binding to CSE by MicroScale Thermophoresis (MST)
Method: as §1

T1 sequence (A0A0H3K724 entry or part of it): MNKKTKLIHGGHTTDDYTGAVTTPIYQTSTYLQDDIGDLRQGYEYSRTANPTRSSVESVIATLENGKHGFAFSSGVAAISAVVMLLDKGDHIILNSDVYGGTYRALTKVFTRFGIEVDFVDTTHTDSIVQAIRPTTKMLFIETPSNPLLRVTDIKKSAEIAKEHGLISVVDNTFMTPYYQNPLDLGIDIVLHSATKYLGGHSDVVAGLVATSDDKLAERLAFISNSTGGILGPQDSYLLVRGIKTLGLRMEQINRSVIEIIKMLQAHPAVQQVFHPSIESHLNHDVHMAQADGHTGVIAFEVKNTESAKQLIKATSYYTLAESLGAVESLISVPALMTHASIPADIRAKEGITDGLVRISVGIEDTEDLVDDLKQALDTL

O=C(O)c1cc(Cn2ccc3ccc(-c4cc5cccc(Cl)c5s4)cc32)[nH]n1 [Example 68, 5-{[6-(7-chloro-1-benzothiophen-2-yl)-1H-indol-1-yl]methyl}-1H-pyrazole-3-carboxylic acid]
% MIC at 0.375 μg/mL [1]: 10 (% MIC at 0.375 μg/mL)

O=C(O)CNC(=O)Cn1ccc2ccc(Br)cc21 [Example 80, (2-(6-bromo-1H-indol-1-yl)acetyl)glycine]
IC50 [2]: ~0.1 µM
concentration at which more than a half of the cells died ([3]; human): 1,250 μM
concentration at which practically all cells died ([3]; human): 2,500 μM
concentration at which the compound becomes toxic to cells (conservative estimation) ([3]; human): ~500 µM
concentration at which the number of dead cells started to increase ([3]; human): 625 µM
cytotoxic concentration fold higher than optimal concentration for bacterial growth inhibition ([3]; versus liquid culture with 10% MIC of gentamicin): over 50 fold
bacterial growth in co-treatment with vancomycin ([4]; Ex. 80 10 μg/mL + vancomycin 2 μg/mL): inhibition of bacterial growth
bacterial growth, agent alone [4]: did not affect bacterial growth
bacterial growth in co-treatment with methicillin ([5]; Ex. 80 10 μg/mL + methicillin 5 μg/mL): inhibition of bacterial growth
bacterial growth, agent alone [5]: did not affect bacterial growth
cytotoxic concentration [6]: ~400 µM

C#CCC(N)C(=O)O (stereo not shown) [PAG, propargylglycine]
Kd [7]: ~90 µM
fold higher KD than Ex. 80 ([7]; MST, CSE): 225 fold

COc1cccc(OC)c1C(=O)N[C@@H]1C(=O)N2[C@@H]1SC(C)(C)[C@@H]2C(=O)O [methicillin, reference compound]
bacterial growth, agent alone [5]: only slowed down growth

CN[C@H](CC(C)C)C(=O)N[C@H]1C(=O)N[C@@H](CC(N)=O)C(=O)N[C@H]2C(=O)N[C@H]3C(=O)N[C@H](C(=O)N[C@H](C(=O)O)c4cc(O)cc(O)c4-c4cc3ccc4O)[C@H](O)c3ccc(c(Cl)c3)Oc3cc2cc(c3O[C@@H]2O[C@H](CO)[C@@H](O)[C@H](O)[C@H]2O[C@H]2C[C@](C)(N)[C@H](O)[C@H](C)O2)Oc2ccc(cc2Cl)[C@H]1O [vancomycin, reference compound]
bacterial growth, agent alone [4]: only slowed down growth
